#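 Briefly, cells in 96-well plates were exposed to five compound concentrations for 48 h, and endpoints were estimated by linear interpolation. GI50 = concentration required for 50% inhibition of growth.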 Activity calls are given as the source filed them. No stated cut-off is given here; in the data, active = GI50 up to about 1.1 µM and inactive = higher.
# Legend:
# Test in all cases: growth of human tumour cells (NCI), 48 h
# MDA-MB-435 = test system: MDA-MB-435
# NCI-H460 = test system: NCI-H460
# HL-60 = test system: HL-60
# CCRF-CEM = test system: CCRF-CEM
# HOP-92 = test system: HOP-92
# NCI/ADR-RES = test system: NCI/ADR-RES
# Malme-3M = test system: Malme-3M
# OVCAR-3 = test system: OVCAR-3
# 786-0 = test system: 786-0
# HCT-116 = test system: HCT-116
# DU-145 = test system: DU-145
# SR = test system: SR
# BT-549 = test system: BT-549
# RXF 393 = test system: RXF 393
# HOP-62 = test system: HOP-62
# MCF7 = test system: MCF7
# A498 = test system: A498
# SNB-19 = test system: SNB-19
# Hs-578T = test system: Hs-578T
# MDA-MB-231 = test system: MDA-MB-231
SMILES,GI50 (MDA-MB-435),GI50 (NCI-H460),GI50 (HL-60),GI50 (CCRF-CEM),GI50 (HOP-92),GI50 (NCI/ADR-RES),GI50 (Malme-3M),GI50 (OVCAR-3),GI50 (786-0),GI50 (HCT-116),GI50 (DU-145),GI50 (SR),GI50 (BT-549),GI50 (RXF 393),GI50 (HOP-62),GI50 (MCF7),GI50 (A498),GI50 (SNB-19),GI50 (Hs-578T),GI50 (MDA-MB-231)
Cc1cc(C)c(N[S+]([O-])c2ccc(Cl)cc2)c(C)c1 (configuration not stated),51.5 µM (inactive),> 100 µM (inactive),> 100 µM (inactive),> 100 µM (inactive),68.7 µM (inactive),> 100 µM (inactive),> 100 µM (inactive),> 100 µM (inactive),> 100 µM (inactive),> 100 µM (inactive),> 100 µM (inactive),> 100 µM (inactive),> 100 µM (inactive),> 100 µM (inactive),> 100 µM (inactive),> 100 µM (inactive),> 100 µM (inactive),> 100 µM (inactive),–,–
CC1CC(C)C2=NOS3=C2C1=NO3 (configuration not stated),> 100 µM (inactive),> 100 µM (inactive),> 100 µM (inactive),> 100 µM (inactive),> 100 µM (inactive),> 100 µM (inactive),89.7 µM (inactive),> 100 µM (inactive),> 100 µM (inactive),> 100 µM (inactive),> 100 µM (inactive),> 100 µM (inactive),–,> 100 µM (inactive),> 100 µM (inactive),82.8 µM (inactive),12.9 µM (inactive),> 100 µM (inactive),> 100 µM (inactive),> 100 µM (inactive)
CN1C(c2ccccc2)CC(O)CC1c1ccccc1 (configuration not stated),–,> 100 µM (inactive),> 100 µM (inactive),> 100 µM (inactive),> 100 µM (inactive),–,> 100 µM (inactive),> 100 µM (inactive),> 100 µM (inactive),> 100 µM (inactive),–,> 100 µM (inactive),–,> 100 µM (inactive),> 100 µM (inactive),–,> 100 µM (inactive),> 100 µM (inactive),–,–
CC(C)SC(C)(NC(=O)C1C(C)(C)CCC1(C)C)C(=O)O (configuration not stated),> 100 µM (inactive),> 100 µM (inactive),> 100 µM (inactive),> 100 µM (inactive),> 100 µM (inactive),> 100 µM (inactive),–,–,> 100 µM (inactive),> 100 µM (inactive),> 100 µM (inactive),> 100 µM (inactive),–,–,> 100 µM (inactive),> 100 µM (inactive),> 100 µM (inactive),> 100 µM (inactive),> 100 µM (inactive),> 100 µM (inactive)
Cc1cn(C2OC(CO[Si](C)(C)C(C)(C)C)C(N(C)O[Si](C)(C)C(C)(C)C)C2[Se]c2ccccc2)c(=O)[nH]c1=O (configuration not stated),3.79 µM (inactive),–,> 100 µM (inactive),11.8 µM (inactive),1.9 µM (inactive),13.2 µM (inactive),11.6 µM (inactive),4.39 µM (inactive),2.89 µM (inactive),3.56 µM (inactive),8.93 µM (inactive),9.89 µM (inactive),–,–,4.76 µM (inactive),4.71 µM (inactive),14.9 µM (inactive),5.82 µM (inactive),2.67 µM (inactive),6.27 µM (inactive)
Cc1cc2[nH]c3c(C#N)c(-c4ccccc4)c(/C=N/c4cccc(C(F)(F)F)c4)c(=O)n3c2cc1C,> 100 µM (inactive),> 100 µM (inactive),–,72.8 µM (inactive),–,> 100 µM (inactive),> 100 µM (inactive),16.3 µM (inactive),94 µM (inactive),40.8 µM (inactive),–,–,91.6 µM (inactive),37 µM (inactive),22.6 µM (inactive),79.8 µM (inactive),> 100 µM (inactive),> 100 µM (inactive),–,> 100 µM (inactive)
CCc1c2c(cc3c1CC1(C3)Cc3cc4c(c(C(=O)OC)c3C1)CCCC4)CCCC2 (configuration not stated),> 100 µM (inactive),–,80.9 µM (inactive),51.3 µM (inactive),> 100 µM (inactive),> 100 µM (inactive),> 100 µM (inactive),> 100 µM (inactive),12.1 µM (inactive),20 µM (inactive),–,51.8 µM (inactive),–,59.4 µM (inactive),> 100 µM (inactive),> 100 µM (inactive),> 100 µM (inactive),–,19.2 µM (inactive),> 100 µM (inactive)
C=CC1(CC)/C(=N\O)C(CC)(CC)C(=O)N1O (configuration not stated),–,> 100 µM (inactive),> 100 µM (inactive),> 100 µM (inactive),93.8 µM (inactive),–,> 100 µM (inactive),> 100 µM (inactive),> 100 µM (inactive),> 100 µM (inactive),–,> 100 µM (inactive),–,> 100 µM (inactive),> 100 µM (inactive),–,> 100 µM (inactive),> 100 µM (inactive),–,–
CCCCC1Cc2ccccc2-c2nc3ccccc3n21 (configuration not stated),17.1 µM (inactive),14.3 µM (inactive),< 0.01 µM (active),0.0153 µM (active),16.4 µM (inactive),15.7 µM (inactive),–,15.2 µM (inactive),25.2 µM (inactive),12.6 µM (inactive),18.4 µM (inactive),5.57 µM (inactive),–,15.5 µM (inactive),19.1 µM (inactive),17.3 µM (inactive),16.7 µM (inactive),–,17.1 µM (inactive),17.3 µM (inactive)
CCOP(=O)(C=C=C1CCC2[C@@H]3CCc4cc(OC)ccc4C3CC[C@]12C)OCC (some centres not stated),12.4 µM (inactive),7.82 µM (inactive),0.0222 µM (active),–,10.1 µM (inactive),6.47 µM (inactive),15.6 µM (inactive),10.2 µM (inactive),12.3 µM (inactive),5.22 µM (inactive),14 µM (inactive),1 µM (active),–,1.98 µM (inactive),15.3 µM (inactive),6.14 µM (inactive),12 µM (inactive),13.6 µM (inactive),20.5 µM (inactive),–
COc1ccc2c(c1)c(CC(=O)O)c(C)n2C(=O)c1ccc(Cl)cc1,> 100 µM (inactive),39.9 µM (inactive),44.3 µM (inactive),33.8 µM (inactive),4.42 µM (inactive),> 100 µM (inactive),68.7 µM (inactive),56.6 µM (inactive),75.3 µM (inactive),> 100 µM (inactive),> 100 µM (inactive),16.3 µM (inactive),–,–,54.5 µM (inactive),87.7 µM (inactive),–,56.9 µM (inactive),> 100 µM (inactive),> 100 µM (inactive)
COc1cc([C@H]2c3cc4c(cc3O[C@@]3(O)COC(=O)[C@@H]23)OCO4)cc(OC)c1OC,> 100 µM (inactive),> 100 µM (inactive),> 100 µM (inactive),> 100 µM (inactive),> 100 µM (inactive),> 100 µM (inactive),> 100 µM (inactive),> 100 µM (inactive),> 100 µM (inactive),> 100 µM (inactive),> 100 µM (inactive),> 100 µM (inactive),–,> 10 µM (inactive),> 100 µM (inactive),> 100 µM (inactive),> 100 µM (inactive),> 100 µM (inactive),> 100 µM (inactive),> 100 µM (inactive)

# Reference: ChEMBL document CHEMBL1201862, “PubChem BioAssay data set” (2004)
